The results in this text go back to patent US20260240850A1, “Compositions and Methods for Treating MALT1 Associated Diseases” (Rarefied Biosciences, Inc., priority 2023, published 2026).

In assay [1] the test system is T cells that lack endogenous CARD11 and bear transfected CARD11 gain-of-function mutations; κB-GFP readout of NFκB signaling. The assay is described as follows: NF-κB-GFP reporter in T cells transfected with CARD11 gain-of-function cDNA (Example 1). The format is cell-based. The note with it: T cells with CARD11 GOF variants; baseline and after anti-CD3 or PMA/ionomycin; flow cytometry. On the procedure: MALT1 inhibitors (e.g., Compounds 1.1, 1.26, 1.27, 1.30, 1.33, 2.1, and/or 2.4) are incubated with T cells that lack endogenous CARD11 and bear transiently transfected CARD11 cDNA bearing gain-of-function mutations. An optional variation is co-transfecting 50:50 a copy of the wildtype CARD11 gene with the CARD11 gain of function mutant. The T-cells include a reporter gene (κB-GFP) that acts as a readout of NFκB signaling. The expression of NF-κB-GFP at baseline and after anti-CD3, or PMA/ionomycin stimulation is measured.
T-Cells bearing GOF variants of CARD11 have elevated baseline activation of NF-κB-GFP, and higher still after stimulation, which is assessed by flow cytometry.

Assay [2] concerns patients with BENTA. Put plainly: Clinical trial of MALT1 inhibitors for BENTA (Example 2). Type of assay: in vivo. The note with it: oral once daily, 25 mg/day up to 1000 mg/day. Here is the method:
MALT1 inhibitors (e.g., Compounds 1.1, 1.26, 1.27, 1.30, 1.33, 2.1, and/or 2.4) are used to treat patients with BENTA. MALT1 inhibitors (e.g., Compounds 1.1, 1.26, 1.27, 1.30, 1.33, 2.1, and/or 2.4) are formulated in an oral dosage form and administered to patients once daily at a starting dose of 25 mg/day. Alternatively, the daily dose is escalated from 25 mg/day to 1000 mg/day.

Assay [3] deals with mTor pathway (e.g., mTORc1 and/or mTORc2) in primary T cells. The assay is described as follows: mTor pathway activation in stimulated primary T cells, pAkt/pS6 staining (Example 3). The format is cell-based. As to conditions: primary T cells after anti-CD3/anti-CD28 activation. Here is the method:
Primary T cells are stimulated to activation and cultured in the presence of IL-2. For stimulation, cells are preincubated with anti-CD3F and anti-CD28 on ice and washed. Cells were stimulated by crosslinking the anti-CD3 antibody with a secondary antibody (e.g., anti-mouse IgG for 10 min) in complete T cell media and then fixed with pre-warmed fixation buffer. Cells are then washed with FACS buffer and permeabilized with permeabilization buffer pre-chilled to −20° C. and incubated for 30 min on ice. Cells are washed and then stained with the following antibodies or appropriate isotype controls anti-pAkt (Ser473) and anti-pS6 (Ser240/244).
MALT1 inhibitors (e.g., Compounds 1.1, 1.26, 1.27, 1.30, 1.33, 2.1, and/or 2.4) are incubated with the primary T cells after activation.

The subject of assay [4] is epithelial cells (e.g., HEK293 cells) bearing CARD14 gain-of-function mutations; κB-GFP readout of NFκB signaling. Put plainly: NF-κB-GFP reporter in epithelial cells transfected with CARD14 gain-of-function cDNA (Example 4). The format is cell-based. The note with it: epithelial cells with CARD14 GOF variants; flow cytometry. Here is the method: MALT1 inhibitors (e.g., Compounds 1.1, 1.26, 1.27, 1.30, 1.33, 2.1, and/or 2.4) are incubated with epithelial cells (e.g., HEK293 cells) that lack endogenous CARD14 and bear transiently transfected CARD14 cDNA bearing gain-of-function mutations. The epithelial cells include a reporter gene (κB-GFP) that acts as a readout of NFκB signaling. The expression of NF-κB-GFP at baseline and after anti-CD3, or PMA/ionomycin stimulation is measured.
Epithelial cells bearing gain of function variants of CARD14 have elevated baseline activation of NF-κB-GFP, and higher still after stimulation, which is assessed by flow cytometry.
For orientation: A flow cytometer gives signals particle by particle.

The target in assay [5] is T1, full-length human MALT1 (Homo sapiens, UniProt Q9UDY8).
T1 construct: Recombinant full-length human MALT1 protein was expressed and purified; made in house
T1 sequence (Q9UDY8 1-824): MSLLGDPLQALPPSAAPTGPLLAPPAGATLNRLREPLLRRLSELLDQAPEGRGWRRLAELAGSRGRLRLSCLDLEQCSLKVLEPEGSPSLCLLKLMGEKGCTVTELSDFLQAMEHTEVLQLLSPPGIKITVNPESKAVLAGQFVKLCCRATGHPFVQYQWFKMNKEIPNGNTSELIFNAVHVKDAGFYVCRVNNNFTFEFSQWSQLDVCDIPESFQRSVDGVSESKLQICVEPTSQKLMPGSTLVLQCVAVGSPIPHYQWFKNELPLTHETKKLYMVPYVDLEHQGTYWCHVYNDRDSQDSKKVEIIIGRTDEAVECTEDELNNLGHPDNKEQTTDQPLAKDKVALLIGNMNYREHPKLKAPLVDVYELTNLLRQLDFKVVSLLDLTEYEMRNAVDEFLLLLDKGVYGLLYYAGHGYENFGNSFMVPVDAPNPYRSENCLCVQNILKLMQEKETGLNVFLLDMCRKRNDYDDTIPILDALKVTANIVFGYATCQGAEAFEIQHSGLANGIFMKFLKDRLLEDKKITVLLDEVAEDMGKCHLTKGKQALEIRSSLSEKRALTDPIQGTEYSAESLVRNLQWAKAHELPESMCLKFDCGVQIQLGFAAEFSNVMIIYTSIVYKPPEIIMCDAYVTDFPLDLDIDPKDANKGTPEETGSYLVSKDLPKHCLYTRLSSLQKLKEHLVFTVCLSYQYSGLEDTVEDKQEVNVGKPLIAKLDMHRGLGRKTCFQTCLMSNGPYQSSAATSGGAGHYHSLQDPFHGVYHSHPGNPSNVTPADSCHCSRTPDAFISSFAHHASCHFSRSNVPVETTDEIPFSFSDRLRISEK
Put plainly: MALT1 cleavage of HOIL1 (Example 5). Type of assay: biochemical. The note with it: HOIL1 0.05 μg/μL with MALT1, 2 h at 37° C.; gel electrophoresis/immunoblot. On the procedure:
Recombinant full-length human MALT1 protein was expressed and purified. C-terminal Myc-FLAG-tagged full-length human HOIL1 was obtained from Origene. HOIL1 protein (0.05 μg/μL) is incubated with different concentrations of MALT1 in assay buffer (200 mM Tris-HCl, 0.8 M Na citrate, 0.1 mM EGTA, 0.05% CHAPS, 1 mM DTT, pH 7.4) for 2 h at 37° C. Cleavage of HOIL1 was analyzed by gel electrophoresis using a 4-12% Bis-Tris SDS-polyacrylamide (PAGE) gradient gel (Life Technologies). The presence of a small fragment was confirmed by immunoblotting with an N-terminal antibody (anti-N-terminal HOIL1; HPA024185; Sigma). Total HOIL1 was observed using a C-terminal directed antibody (anti-FLAG, clone M2, Sigma). These assays are performed with both the cleavable HOIL1 and, as a negative control, a non-cleavable HOIL1 (where Lys is substituted for Arg165).
On the technique in general: Immunoblotting shows a protein as a band on a membrane.

Take `CO[C@@H](C)c1c(Nc2ccc([C@@H](N(C)C(=O)C3CCS(=O)(=O)CC3)C(F)(F)F)cc2)cnc2nc(Cl)nn12` [Compound 1.26, N-[(1R)-1-[4-({2-chloro-7-[(1S)-1-methoxyethyl]-[L2,4]triazolo[1,5-a]pyrimidin-6-yl}amino)phenyl]-2,2,2-trifluoroethyl]-N-methyl-1,1-dioxo-1λ^6-thiane-4-carboxamide]: the NF-κB-GFP expression result in assay [1] and in assay [4] was “lowered NF-κB-GFP expression” throughout. Moreover, the BENTA symptoms entry in assay [2] is reported as “amelioration of their BENTA symptoms”. The “Jun/Fos, NF-κB and/or mTor pathway activation in patients” value (“Jun/Fos … in patients” for short) in assay [2] is listed as “reduced Jun/Fos, and/or NF-κB and/or a mTor pathway (e.g., mTORc1 and/or mTORc2) activation”. In addition, the “mTor pathway (mTORc1 and/or mTORc2) activation” value in assay [3] is “suppress mTor pathway (e.g., mTORc1 and/or mTORc2) activation”. For the same molecule, the “cleavage of HOIL1” value in assay [5] is reported as “cleavage of HOIL1 is reduced”.

Regarding `CO[C@H](C)c1c(Nc2ccc([C@@H](N(C)C(=O)C3CCS(=O)(=O)CC3)C(F)(F)F)cc2)cnc2nc(Cl)nn12` [Compound 1.27, N—[(IR)—I-[4-({2-chloro-7-[(1R)-1-methoxyethyl]-[1,2,4]triazolo[1,5-a]pyrimidin-6-yl}amino)phenyl]-2,2,2-trifluoroethyl]-N-methyl-1,1-dioxo-1λ^6-thiane-4-carboxamide], the NF-κB-GFP expression entry in assay [1] is given as “lowered NF-κB-GFP expression”. Also, in assay [2], the BENTA symptoms result is recorded as “amelioration of their BENTA symptoms” and the “Jun/Fos … in patients” value is given as “reduced Jun/Fos, and/or NF-κB and/or a mTor pathway (e.g., mTORc1 and/or mTORc2) activation”. Besides, in assay [3], the “mTor pathway (mTORc1 and/or mTORc2) activation” value is reported as “suppress mTor pathway (e.g., mTORc1 and/or mTORc2) activation”. In addition, the NF-κB-GFP expression entry in assay [4] is “lowered NF-κB-GFP expression”. Besides, in assay [5], the “cleavage of HOIL1” value is given as “cleavage of HOIL1 is reduced”.

Consider `CO[C@@H](C)c1c(Nc2ccc([C@H](N(C)C(=O)C3CCS(=O)(=O)CC3)C(F)(F)F)c(C)c2)cnc2nc(Cl)nn12` [Compound 1.30, N-[(1S)-1-[4-({2-chloro-7-[(1S)-1-methoxyethyl]-[1,2,4]triazolo[1,5-a]pyrimidin-6-yl}amino)-2-methylphenyl]-2,2,2-trifluoroethyl]-N-methyl-1,1-dioxo-1λ^6-thiane-4-carboxamide], for which the NF-κB-GFP expression entry in assay [1] is “lowered NF-κB-GFP expression”. Moreover, in assay [2], the BENTA symptoms result is “amelioration of their BENTA symptoms” and the “Jun/Fos … in patients” value is recorded as “reduced Jun/Fos, and/or NF-κB and/or a mTor pathway (e.g., mTORc1 and/or mTORc2) activation”. Also, in assay [3], the “mTor pathway (mTORc1 and/or mTORc2) activation” value is reported as “suppress mTor pathway (e.g., mTORc1 and/or mTORc2) activation”. The NF-κB-GFP expression result in assay [4] was “lowered NF-κB-GFP expression”. Moreover, the “cleavage of HOIL1” value in assay [5] is “cleavage of HOIL1 is reduced”.

Regarding `CO[C@@H](C)c1c(Nc2ccc([C@H](N(C)C(=O)C3CCS(=O)(=O)CC3)C(F)(F)F)cc2C)cnc2nc(Cl)nn12` [Compound 1.33, N-[(1S)-1-[4-({2-chloro-7-[(1S)-1-methoxyethyl]-[1,2,4]triazolo [1,5-a]pyrimidin-6-yl}amino)-3-methylphenyl]-2,2,2-trifluoroethyl]-N-methyl 1,1-dioxo-1λ^6-thiane-4-carboxamide], the NF-κB-GFP expression entry in assay [1] and in assay [4] was “lowered NF-κB-GFP expression” in each case. The BENTA symptoms result in assay [2] is reported as “amelioration of their BENTA symptoms”. Besides, in assay [2], the “Jun/Fos … in patients” value is “reduced Jun/Fos, and/or NF-κB and/or a mTor pathway (e.g., mTORc1 and/or mTORc2) activation”. The “mTor pathway (mTORc1 and/or mTORc2) activation” value in assay [3] was “suppress mTor pathway (e.g., mTORc1 and/or mTORc2) activation”. For the same molecule, the “cleavage of HOIL1” value in assay [5] is given as “cleavage of HOIL1 is reduced”.

Consider `CN(C(=O)[C@H]1CC[C@H](C(=O)O)CC1)[C@@H](c1ccc(Nc2cnn(-c3ccccc3)c2C(F)(F)F)cc1)C(F)(F)F` [Compound 2.1], for which the NF-κB-GFP expression result in assay [1] and in assay [4] was “lowered NF-κB-GFP expression” each time. Besides, the BENTA symptoms entry in assay [2] is on record as “amelioration of their BENTA symptoms”. In addition, in assay [2], the “Jun/Fos … in patients” value is recorded as “reduced Jun/Fos, and/or NF-κB and/or a mTor pathway (e.g., mTORc1 and/or mTORc2) activation”. Moreover, the “mTor pathway (mTORc1 and/or mTORc2) activation” value in assay [3] was “suppress mTor pathway (e.g., mTORc1 and/or mTORc2) activation”. The “cleavage of HOIL1” value in assay [5] was “cleavage of HOIL1 is reduced”.
